One series deals with T1, PPARgamma (h) (Homo sapiens, UniProt P37231).
T1 construct: host or cells: E. coli
T1 sequence (P37231 1-505): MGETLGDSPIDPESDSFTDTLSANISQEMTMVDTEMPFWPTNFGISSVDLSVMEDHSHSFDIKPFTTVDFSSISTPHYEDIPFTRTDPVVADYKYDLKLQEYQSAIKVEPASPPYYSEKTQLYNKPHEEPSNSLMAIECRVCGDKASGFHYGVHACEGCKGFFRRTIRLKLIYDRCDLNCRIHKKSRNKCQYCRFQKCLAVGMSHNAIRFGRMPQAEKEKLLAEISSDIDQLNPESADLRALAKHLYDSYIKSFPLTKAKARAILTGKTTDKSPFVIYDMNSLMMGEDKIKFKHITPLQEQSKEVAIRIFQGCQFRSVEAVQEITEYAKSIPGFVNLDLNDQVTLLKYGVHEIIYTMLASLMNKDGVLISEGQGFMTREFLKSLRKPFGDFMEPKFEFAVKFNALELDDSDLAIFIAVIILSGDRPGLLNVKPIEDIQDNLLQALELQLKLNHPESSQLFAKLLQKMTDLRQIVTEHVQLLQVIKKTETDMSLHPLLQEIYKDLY
In words: Human recombinant (E. coli) PPARgamma (h) binding assay. Conditions: @ 30 μM. The protocol: The results are expressed as a percent of control specific binding ((measured specific binding/control specific binding)×100) obtained in the presence of the test compounds. The IC50 values (concentration causing a half-maximal inhibition of control specific binding) and Hill coefficients (nH) were determined by non-linear regression analysis of the competition curves generated with mean replicate values using Hill equation curve fitting (Y=D+[(A D)/(1+(C/C50)nH)], where Y=specific binding, D=minimum specific binding, A=maximum specific binding, C=compound concentration, C50=IC50, and nH=slope factor). This analysis was performed using a software developed at Cerep (Hill software) and validated by comparison with data generated by the commercial software SigmaPlot® 4.0 for Windows® (© 1997 by SPSS Inc.). The inhibition constants (Ki) were calculated using the Cheng Prusoff equation (Ki=IC50/(1+(L/KD)), where L=concentration of radioligand in the assay, and KD=affinity of the radioligand for the receptor).

In series [1] the test system is 1.5 μM U-46619-induced platelet aggregation (platelet rich plasma). The series is described as follows: TP receptor platelet aggregation - rabbit. Type of series: cell-based, New Zealand Rabbit. Conditions: Oryctolagus cuniculus, @ 0.1 mM (printed in the 30 μM column). An excerpt:
TP Receptor Platelet Aggregation—Rabbit:
Thrombosis Research 33:277-288

A short description of series [2]: Blood cell analysis at end of thrombosis experiment. Type of series: in vivo, mouse. Here is the method: (§1) The flow in each image is expressed as a percentage of that at the contralateral side, and data are averaged for all 120 images to determine total flow. The same analysis is performed for 10 min intervals (which gives essentially the same information as the area under the curve). […] Flow before treatment is recorded as 100%, and that in occluded arteries as 0%. At the end of the experiment, blood is collected on 0.01M citrate by heart puncture for determination of blood cell counts. Plasma is prepared by centrifugation and stored at −20° C. for determination of drug levels.
Table VI summarizes the results of blood cell analysis performed on a sample taken at the end of the observation period. (Z)-6-((2S,4S,5R)-2-(2-chlorophenyl)-4-(2-hydroxyphenyl)-1,3-dioxan-5-yl)hex-4-enoic is referred to in Table VI as EV.

The subject of another series is KKA^y mice. The series is described as follows: Glucose lowering effect in KKAy mouse model. The class given is in vivo. The protocol:
(§2) 52 male KKA^y mice were obtained commercially (e.g., from Clea Japan) at an age of 6 weeks and put on a high fat diet upon arrival. Individual mice were housed in IVC Type II cages during both the acclimatization and the experimental phase. Both food (high fat diet) and water were supplied ad libitum.
(§3) Mice were randomized into treatment groups according to their 4-h fasting blood glucose.
(§4) 4 hours after the last administration, non-fasting conditions.
(§5) Blood was collected into heparin containing glass capillaries which were subsequently centrifuged in a “Haematokrit 24” centrifuge (Hettich) at 15′200×g for 10 min at room temperature to obtain the hematocrit value.
(§6) The following serum parameters were determined on a COBAS INTEGRA 800 auto analyzer (Roche Diagnostics, Switzerland) using the reagents and protocols provided by the supplier.
(§7) All measurements were made on Day 14 of administration, except for the food intake and body weight measurements that were made on Day 12.

Series [3] can be described thus: Glucose lowering effect in KKAy mouse model. The class given is in vivo. Conditions: male, mouse, serum; KKA^y mice, 53 mg/kg BID oral gavage 14 days, 4 hours after the last administration, average ± S.E.M.; read-out: Serum level of the compound. Here is the method: as §2, §3, §4, §5, §6, §7
Series [4] deals with mice (FeCl3 induced femoral artery thrombosis). In words: FeCl3 arterial thrombosis mouse model (occlusion time, blood flow). Type of series: in vivo. Here is the method:
The solutions were diluted 3.3-fold in saline and 100 μl/25 g was injected.
During the experiments, a soluble potassium salt of the drug was provided, diluted in saline. Of this formulation, 100 μl/25 g was injected i.v. in the tail vein (dose of 100 mg/kg).
Aspirin is given the same way at a dose of 200 mg/kg. Clopidogrel is administered by oral gavage at a dose of 20 mg/kg at 6-7 hours prior to the experiment. The solutions were coded (except for clopidogrel) and the operator was blinded to the code. The animals assigned to each group were matched for body weight. All mice used were 8-10 weeks old males and were in a 100% Swiss genetic background.
as §1
Statistical analysis for differences between two groups is performed by non-parametric Student t-test. Occlusion times >30 min were considered equal to 30 min for statistical analysis. It should be noted that this approach may result in a statistical bias, the more so because the number of experiments is not the same in the different groups. Significance is set at p<0.05.

The mark [5] stands for this setting: 30 mg/kg vehicle i.v., n = 4, mean ± SEM.
The mark [6] stands for this setting: 100 mg/kg vehicle i.v., n = 9, mean ± SEM.
[7] abbreviates: 53 mg/kg BID oral gavage 14 days, Day 14, average ± S.E.M.

The structures appear in SMILES notation.

In the case of `O=C(O)CC/C=C\C[C@H]1COC(c2ccccc2Cl)O[C@H]1c1ccccc1O` (single isomer, unassigned) [Compound A], the “PPARgamma binding @ 30 μM” value on PPARgamma (h) is “no binding”. Moreover, the inhibition at 100 µM in series [1] came out at 15%.

In series [2] (setting [5]), `O=C(O)CC/C=C\C[C@@H]1CO[C@H](c2ccccc2Cl)O[C@@H]1c1ccccc1O` (single isomer, unassigned) [Compound B] yielded a Hematocrit of 62 ± 7.3%, a Hemoglobin of 15 ± 0.28 g/dL, a Lymphocytes of 42 ± 4.7% and a Neutrophils of 56 ± 5.3%. Also, in series [2] (setting [5]), the Platelets is 1020 ± 89 ×10^3/μl, the Red blood cells is reported as 9.1 ± 0.26 ×10^6/μl and the White blood cells is 0.95 ± 0.17 ×10^3/μl. In series [2] (setting [6]), this compound displayed a Hematocrit of 70 ± 3.5%, a Hemoglobin of 15 ± 0.30 g/dL, a Lymphocytes of 58 ± 11% and a Neutrophils of 34 ± 12%. In series [2] (setting [6]), the Platelets is 895 ± 46 ×10^3/μl, the Red blood cells is recorded as 9.2 ± 0.17 ×10^6/μl and the White blood cells is 1.5 ± 0.46 ×10^3/μl. For the same compound, in the series on KKA^y mice (setting [7]), the ALP came out at 21.5 ± 1.6 dU/L, the ALT is listed as 5.1 ± 0.6 dU/L, the AST was 7.7 ± 1.0 dU/L and the Hematocrit is recorded as 40.1 ± 1.6%. Besides, the “Serum Glucose” value in the series on KKA^y mice (setting [7]) is reported as “decreased”. Also, in the series with KKA^y mice (53 mg/kg BID oral gavage 14 days, Day 14, average ± S.E.M., listed as (Z)-6-(2S,4S,5R)-2-(2-chlorophenyl)-4-(2-hydroxyphenyl)-1,3-dioxan-5-yl(hex-4-e, 53 mg/kg)), the FFA result is reported as “slightly decreased”. In the series on KKA^y mice (53 mg/kg BID oral gavage, Day 12, average ± S.E.M.), the “Food Intake” value was determined as 5.0 ± 0.6 g/day. In addition, in series [3], the concentration at 4 h was 161 ± 60 ng/mL. In series [4] (30 mg/kg in vehicle (DMSO/PEG 400) i.v.), the occlusion time entry was “slightly prolongs the occlusion time as compared to aspirin (p=0.024), but has no effect as compared to vehicle”. Further, the total blood flow entry in series [4] (30 mg/kg in vehicle i.v.) was “no effect”. In series [4] (100 mg/kg in vehicle i.v.), the “blood flow, time window 0-10 min” value is “significantly higher flow as compared to aspirin (p=0.0002) but not as compared to vehicle only (p=0.11)” and the total blood flow result was “improved total blood flow as compared to aspirin (p=0.055), but not as compared to vehicle (p=0.45)”.

The values above are taken from patent US8536196B2, “Substituted 1,3-dioxanes useful as PPAR modulators” (Evolva SA, priority 2007, dated 2013).
